Reference: PMC7217877, “N-AS-triggered SPMs are direct regulators of microglia in a model of Alzheimer’s disease” (Nature Communications, 2020)
Several values for one entry are separate records, joined by “and”; a condition that tells them apart may be missing. Equal values may be shown once.

Assays:
SphK1 R185A = biological target: T1, SphK1 R185A (Homo sapiens, UniProt Q9NYA1, R185A); assay: filter binding assay of [3H] acetyl-CoA to SphK1
T1 construct: His (N); made in house
From the text: (§1) Single point mutations in SphK1 (R56A, R57A, R24A, R185A, D178A, and F192A) and COX2 (S565A, N181A, T564A, and S567A) were generated using the In-Fusion Cloning Kits (Clontech) and ORF cDNA expression plasmids of human SphK1 and COX2 gene (Sino Biological Inc, HG15679-NH and HG12036-NH), according to the manufacturer’s instructions. The forward and reverse primers described in Supplementary Table 4. The SphK1 WT, SphK1 mutants, COX2 WT, and COX2 mutant plasmids were transformed in the One shot TOP 10 competent cell (Invitrogen). The bacteria were grown in Luria-Bertani (LB, Invitrogen) plates supplemented with 50 μg ml^−1 kanamycin (Sigma-Aldrich) at 37 °C. The bacterial cell pellets were resuspended in lysis buffer containing 20 mM sodium phosphate (GE Healthcare), 500 mM NaCl (GE Healthcare), 20 mM imidazole (pH 7.4) (GE Healthcare), 0.2 mg ml^−1 lysozyme (Sigma-Aldrich), 20 μg ml^−1 DNase I (Roche), 1 mM MgCl2 (Sigma-Aldrich), and 1 mM PMSF (Sigma-Aldrich) before being lysed by sonication and clarified by centrifugation at 15,493×g for 10 min. Proteins were purified from the soluble fraction using His-Spin Trap columns (GE Healthcare) and the binding and acetylation assays were performed.
(§2) Briefly, SphK1 WT and mutant enzymes (1 mU) were resuspended in 100 μl reaction buffer (20 mM HEPES; pH 7.4, 50 mM NaCl, 10 mM MgCl2, 1 mM EGTA, 0.02% Triton-X100, and 100 μM sphingosine, all from Sigma-Aldrich). […] Briefly, COX2 WT and mutant enzymes (1 mU) were resuspended in 100 μl reaction buffer (20 mM HEPES; pH 7.4, 50 mM NaCl, 10 mM MgCl2, 1 mM EGTA, and 0.02% Triton-X100, all from Sigma-Aldrich). Reactions were initiated by adding [^14C] N-AS (1–200 μM (0.1–20 μCi), ARC UK Ltd, ARC-1024) and incubated at 37 °C for 1 h. The reactions were terminated by adding 100 μl of ice-cold reaction buffer containing 5 mM cold N-AS and immediately filtered through P30 filtermat (Perkin-Elmer), followed by five washes.
(§3) The binding velocity was plotted and the Kcat and KM values were calculated from the Michaelis-Menten analysis using the Sigma-plot program (ver 10.0, Systat software Inc.).

SphK1 R24A = biological target: T2, SphK1 R24A (Homo sapiens, UniProt Q9NYA1, R24A); assay: filter binding assay of [3H] acetyl-CoA to SphK1
T2 construct: His (N); made in house
T2 sequence (Q9NYA1 whole entry R24A): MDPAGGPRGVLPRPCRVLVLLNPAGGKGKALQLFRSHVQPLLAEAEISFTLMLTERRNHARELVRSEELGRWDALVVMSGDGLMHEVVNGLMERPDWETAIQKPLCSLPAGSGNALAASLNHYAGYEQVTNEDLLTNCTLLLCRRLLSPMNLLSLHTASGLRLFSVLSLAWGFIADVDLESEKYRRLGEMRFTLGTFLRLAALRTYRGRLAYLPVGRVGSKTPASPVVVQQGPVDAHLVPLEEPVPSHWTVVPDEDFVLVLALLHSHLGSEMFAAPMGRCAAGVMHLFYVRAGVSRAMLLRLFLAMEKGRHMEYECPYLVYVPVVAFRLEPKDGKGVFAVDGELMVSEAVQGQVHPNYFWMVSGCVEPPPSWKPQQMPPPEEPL
From the text: as §1, §2, §3

SphK1 R56A = biological target: T3, SphK1 R56A (Homo sapiens, UniProt Q9NYA1, R56A); assay: filter binding assay of [3H] acetyl-CoA to SphK1
T3 construct: His (N); made in house
T3 sequence (Q9NYA1 whole entry R56A): as the sequence (Q9NYA1 whole entry R24A) above, with A24R, R56A counted along it
From the text: as §1, §2, §3

SphK1 R57A = biological target: T4, SphK1 R57A (Homo sapiens, UniProt Q9NYA1, R57A); assay: filter binding assay of [3H] acetyl-CoA to SphK1
T4 construct: His (N); made in house
T4 sequence (Q9NYA1 whole entry R57A): as the sequence (Q9NYA1 whole entry R24A) above, with A24R, R57A counted along it
From the text: as §1, §2, §3

APP/PS1 mice = assay: mRNA levels of inflammatory markers in cortex (real-time PCR, Fig 6j); format: in vivo, mouse; design: iNOS mRNA level (Figure 6j) / IL1b mRNA level (Figure 6j) / Arg1 mRNA level (Figure 6j) / IL4 mRNA level (Figure 6j) / TGFb mRNA level (Figure 6j) / TNF-a mRNA level (Figure 6j) / IL6 mRNA level (Figure 6j): scale not given here
Description: Transgenic mouse lines over-expressing the hAPP695swe (APP) and presenilin-1M146V (PS1) mutations were originated from GlaxoSmithKline (Harlow, UK)[32] and maintained as described previously. We purchased 5×FAD mice from Jackson Labs (Stock number. 34840-JAX). Because APP/PS1 and 5xFAD mice show sex differences in disease progression, we used only male mice. To examine possible therapeutic effect of N-AS and aspirin in APP/PS1 mice, the N-AS (30 mg kg^−1, Sigma-Aldrich, 01912) was injected daily s.c. for 8 weeks to 7-months-old APP/PS1 mice until the age of 9 months, and aspirin (2 mg kg^−1, Sigma-Aldrich, A5376)[33] was administrated orally to 7-months-old APP/PS1 mice for 8 weeks. Also, to confirm possible therapeutic efficacy of N-AS in 5×FAD, the N-AS (30 mg kg^−1, Sigma-Aldrich, 01912) was injected daily s.c. for 4 weeks to 3-months-old 5×FAD mice until the age of 4 months. Block randomization method was used to allocate the animals to experimental groups. To eliminate the bias, we were blinded in experimental progress such as data collection and data analysis. Mice were housed at temperature of 22 °C and a 12 h day/12 h night cycle with free access to tap water and food pellets. All protocols were approved by the Kyungpook National University Institutional Animal Care and Use Committee.
For total RNA extraction from the microglia derived from WT, APP/PS1, APP/PS1 mice treated with N-AS, and APP/PS1 mice treated with aspirin, the cells were isolated from the cortex of WT, APP/PS1, APP/PS1 mice treated with N-AS, or aspirin using the methods described above. Total RNA was isolated using the kit components according to the manufacturer’s instructions (RNeasy mini kit, 74134, QIAGEN). cDNA was synthesized from 5 μg of total RNA using a commercially available kit (Takara). Quantitative real-time PCR was performed using a Corbett research RG-6000 real-time PCR instrument. Primers are described in Supplementary Table 5.

[1] = read-out: KM of acetyl-CoA binding to SphK1
[2] = APP/PS1 + N-AS, individual animals

T1 sequence (Q9NYA1 whole entry R185A): as the sequence (Q9NYA1 whole entry R24A) above, with A24R, R185A counted along it

| SMILES | Kcat of acetyl-CoA binding to SphK1 (SphK1 R185A) | Km (SphK1 R185A; [1]) | Kcat of acetyl-CoA binding to SphK1 (SphK1 R24A) | Km (SphK1 R24A; [1]) | Kcat of acetyl-CoA binding to SphK1 (SphK1 R56A) | Km (SphK1 R56A; [1]) | Kcat of acetyl-CoA binding to SphK1 (SphK1 R57A) | Km (SphK1 R57A; [1]) | Arg1 mRNA level (Figure 6j) (APP/PS1 mice; [2]) | IL1b mRNA level (Figure 6j) (APP/PS1 mice; [2]) | IL4 mRNA level (Figure 6j) (APP/PS1 mice; [2]) | IL6 mRNA level (Figure 6j) (APP/PS1 mice; [2]) | TGFb mRNA level (Figure 6j) (APP/PS1 mice; [2]) | TNF-a mRNA level (Figure 6j) (APP/PS1 mice; [2]) | iNOS mRNA level (Figure 6j) (APP/PS1 mice; [2]) | inflammatory response (mRNA of inflammatory markers) (APP/PS1 mice; N-AS vs vehicle APP/PS1) |
| --- | --- | --- | --- | --- | --- | --- | --- | --- | --- | --- | --- | --- | --- | --- | --- | --- |
| CC(=O)SCCNC(=O)CCNC(=O)[C@H](O)C(C)(C)COP(=O)(O)OP(=O)(O)OC[C@H]1O[C@@H](n2cnc3c(N)ncnc32)[C@H](O)[C@@H]1OP(=O)(O)O [Acetyl-CoA, acetyl-CoA] | 0.000237 s⁻¹ | 22.8 µM | 0.000273 s⁻¹ | 14.4 µM | 0.000203 s⁻¹ | 40.4 µM | 0.000305 s⁻¹ | 15.4 µM |  |  |  |  |  |  |  |  |
| CCCCCCCCCCCCC/C=C/[C@@H](O)[C@H](CO)NC(C)=O [N-AS, N-((2S,3R,E)-1,3-Dihydroxyoctadec-4-en-2-yl)acetamide] |  |  |  |  |  |  |  |  | 1.307 and 2.185 and 1.935 and 1.275 and 1.335 and 1.465 | 1.25 and 0.7 and 1.3 and 0.95 and 0.88 and 1.1 | 0.765 and 1.235 and 0.984 and 0.825 | 0.7652 and 0.81 and 0.821 and 0.83 and 0.957 | 1.79 and 2.4 and 2.595 and 2.81 | 0.865 and 1.34 and 1.37 and 1.005 and 1.085 | 0.92 and 1.42 and 1.85 and 1.2 and 0.78 and 0.55 | improved |
